Numbers after ± are expanded uncertainties.
Columns and labels:
[1] = molar heat capacity at constant pressure; details: 3000 kPa, Liquid, Flow calorimetry
[2] = molar heat capacity at constant pressure; wn = mass fraction of the nth substance listed; details: 3000 kPa, Liquid, Flow calorimetry, w1 = 1

Compound	molar heat capacity at constant pressure ([1]; 304.17 K) [J/K/mol]	molar heat capacity at constant pressure ([1]; 314.14 K) [J/K/mol]	molar heat capacity at constant pressure ([1]; 324.11 K) [J/K/mol]	molar heat capacity at constant pressure ([1]; 334.09 K) [J/K/mol]	molar heat capacity at constant pressure ([2]; 304.17 K) [J/K/mol]	molar heat capacity at constant pressure ([2]; 314.14 K) [J/K/mol]	molar heat capacity at constant pressure ([2]; 324.11 K) [J/K/mol]	molar heat capacity at constant pressure ([2]; 334.09 K) [J/K/mol]
N [ammonia]	82.46 ± 0.53	83.45 ± 0.53	85.83 ± 0.53	89.36 ± 0.53	–	–	–	–
N [ammonia] + N#C[S-].[Na+]	–	–	–	–	82.46 ± 0.53	83.45 ± 0.53	85.83 ± 0.53	89.36 ± 0.53

Source: the NIST ThermoML archive (doi:10.1021/je200038n)
